Reference: patent publication EP3400938B1, “NOVEL N-(1,2,3-TRIAZOLMETHYL)ISATIN AND N-(1,2,3-TRIAZOLMETHYL)-3-HYDROXY-3-ARYLOXINDOLES WITH CYTOTOXIC AND ANTI-TUMOR ACTIVITY” (Universidade de Évora, priority 2017, dated 2018)
Where two headings read alike, the source gives them in different places.

Tests used:
[1] = tested on: SW480 colon adenocarcinoma cells; test: 24 h MTT cytotoxicity assay, SW480 cell line; format: cell-based; settings: 24h exposure time
Procedure: One of the main strategies for the treatment of cancer is chemotherapy (De Santis et al. 2014). There are two main factors that made the development of new chemotherapeutic agents crucial: the side effects of the current anticancer drugs used in the clinic and the appearance of tumour cell resistance. A first step facing at tackling this challenging goal is the evaluation of the cytotoxic activity of the new synthesized drugs. In our case, cytotoxicity was evaluated by means of the antiproliferative assay MTT, which is a high-throughput method widely used for the screening of new drugs that is based on the ability of the mitochondrial dehydrogenases to reduce a water soluble yellow dye, namely 3-(4,5-dimethylthiazol-2-yl)-2,5-diphenyl tetrazolium bromide, to form a water insoluble blue formazan (McCauley et al., 2013). […] The best inhibition was obtained with (S)-2 (Table 2, entry 2). Overall the (S) series gave better inhibition results. Table 2 IC50 values obtained from MTT assay with a 24h exposure time
Biological Screening Studies 24 h MTT Cytototoxicity Assay - SW480 cell line
Approximately 5 × 10^3 SW480 colon adenocarcinoma cells were cultured in 200 µl culture medium per well (DMEM medium), supplemented with 10% newborn calf serum and 1% amphotericin-penicillin-streptomycin solution in 96-well plates and incubated at 37 °C under a 5% CO2 atmosphere. The cells were grown for 24h and then exposed to different concentrations of the tested drugs (dissolved in culture medium) for 24h. Hydrogen peroxide was used as a positive control. The cells were washed with the culture medium, incubated with MTT (500 µg/ml) for a further period of 3 hours. At the end of the incubation, the medium was removed, then carefully washed with PBS and 200 µl DMSO were added to each well. Absorbance was read at 570 nm in a microplate reader. Four replicates per dose were included. The IC50 values, that is, the concentrations which produced 50% inhibition of cell viability were calculated from MTT data using the GraphPadPrism Software Inc. (version 6.01) (USA).

[2] = tested on: DOHH-2; test: 72 h MTT proliferation assay on lymphoma cell lines (DOHH-2); format: cell-based; settings: DOHH-2 (GCB-DLBCL), 72h exposure time, read-out: GCB-DLBC cell lines IC50, DOHH-2
Procedure: (§1) A set of ten compounds was tested against four lymphoma cell lines belonging to Germinal Center B-cell-like Diffuse Large B-Cell lymphoma, GCB-DLBCL and Activated B-Cell-like Diffuse Large B-Cell lymphoma, ABC-DLBCL (Table 3). Compounds were tested in triplicates as single agents, for 72 hours by using a large range of concentrations. […] In particular, ISATIN-BENZYL is the most promising one reaching IC50s of 1 and 5 µM in the OCI-LY-10 and SU-DHL-2 cell lines (Table 3). Table 3. IC50 values obtained from MTT assay with a 72h exposure time on lymphoma cell lines.
(§2) 72 h MTT assay on lymphoma cell lines.
(§3) Compounds were dissolved in dimethyl sulphoxide (DMSO) to obtain a stock concentration of 20 mM.
(§4) Cell lines. The panel of lymphoma cell lines comprised models derived from diffuse large B-cell lymphoma (n. 4) cell lines derived from DLBCL of the germinal center B-cell type (GCB-DLBCL), such as VAL and DOHH-2, and derived of the activated B-cell type (ABC-DLBCL) such as OCI-LY-10 and SU-DHL-2.
(§5) Cells were seeded in 96-well plates (non-tissue culture treated) at a density of 10,000 cells for all cell lines. Each compound was dissolved in dimethyl sulphoxide (DMSO). For treatment of cells, compounds were serially diluted in the appropriate tissue culture medium, at a range of 20 µM - 19 nM following a 1:2 dilution factor and added to cells (in three replicates). Cells were incubated for 72 hours at 37 °C, 5% CO2. DMSO alone was added to negative control (untreated) cells. Wells containing medium only were included on each plate and served as blanks for absorbance readings. MTT (Sigma-Aldrich Chemie GmbH, Buchs, Switzerland) was prepared as a 5 mg/ml stock in PBS and filter-sterilized. MTT solution (22µL) was added to each well and tissue culture plates were incubated at 37°C for 4 hours. Cells were then lysed with 25% SDS lysis buffer and absorbance was read at 570 nm using an AD340 plate reader (Beckman Coulter International SA, Switzerland). Absorbance values were expressed in percentage of proliferating cells in comparison with control cells (control corresponds to 100%).

[3] = tested on: VAL; test: 72 h MTT proliferation assay on lymphoma cell lines (VAL); format: cell-based; settings: VAL (GCB-DLBCL), 72h exposure time, read-out: GCB-DLBC cell lines IC50, VAL
Procedure: as §1, §2, §3, §4, §5

[4] = tested on: OCI-LY-10; test: 72 h MTT proliferation assay on lymphoma cell lines (OCI-LY-10); format: cell-based; settings: 72h exposure time, read-out: ABC-DLBC cell lines IC50, OCI-LY-10
Procedure: as §1, §2, §3, §4, §5

[5] = tested on: SU-DHL-2; test: 72 h MTT proliferation assay on lymphoma cell lines (SU-DHL-2); format: cell-based; settings: SU-DHL-2 (ABC-DLBCL), 72h exposure time, read-out: ABC-DLBC cell lines IC50, SU-DHL-2
Procedure: as §1, §2, §3, §4, §5

[6] = tested on: SW480 colon adenocarcinoma cells; settings: bench-mark value from Xu et al. 2003, SW480; cited from earlier work
[7] = Homo sapiens, OCI-Ly10, OCI-LY-10 (ABC-DLBCL)

Row | SMILES | IC50 ([1]; Homo sapiens, SW480, 24 h) [µM] | IC50 ([2]; Homo sapiens) [µM] | IC50 [3] [µM] | IC50 [4, 7] [µM] | IC50 [1] [µM] | other results
1 | O=C1N(Cc2cn(Cc3ccccc3)nn2)c2ccccc2C1(O)c1ccccc1 [(R) -1, 1-((1-Benzyl-1H-1,2,3-triazol-4-yl)methyl)-3-hydroxy-3-phenylindolin-2-one] | 82.6 | > 20 | > 20 | > 20 |  | IC50 ([5]; Homo sapiens, SU-DHL-2, 72 h): > 20 µM
2 | O=C1N(Cc2cn(Cc3ccccc3)nn2)c2ccccc2C1(O)c1ccc2ccccc2c1 [(R) -2, 1-((1-Benzyl-1H-1,2,3-triazol-4-yl)methyl)-3-hydroxy-3-(naphthalen-2-yl)indolin-2-one] | 18.6 | > 20 | > 20 | > 20 |  | IC50 ([5]; Homo sapiens, SU-DHL-2, 72 h): > 20 µM
3 | O=C1N(Cc2cn(Cc3ccccc3)nn2)c2ccccc2C1(O)c1ccc(F)cc1 [(R) -3, 1-((1-Benzyl-1H-1,2,3-triazol-4-yl)methyl)-3-(4-fluorophenyl)-3-hydroxyindolin-2-one] | 49.1 | > 20 | > 20 | > 20 |  | IC50 ([5]; Homo sapiens, SU-DHL-2, 72 h): > 20 µM
4 | COc1ccc(C2(O)C(=O)N(Cc3cn(Cc4ccccc4)nn3)c3ccccc32)cc1 [(R) -4, 1-((1-Benzyl-1H-1,2,3-triazol-4-yl)methyl)-3-hydroxy-3-(4-methoxyphenyl)indolin-2-one] | 76.4 |  |  |  |  | 
5 | O=C1N(Cc2cn(Cc3ccccc3)nn2)c2ccccc2C1(O)c1ccsc1 [(R) -5, 1-((1-Benzyl-1H-1,2,3-triazol-4-yl)methyl)-3-hydroxy-3-(thiophen-3-yl)indolin-2-one] |  | > 20 | > 20 | > 20 | 86.4 | IC50 ([5]; Homo sapiens, SU-DHL-2, 72 h): > 20 µM
6 | O=C1N(Cc2cn(Cc3ccccc3)nn2)c2ccccc2C1(O)c1cccc(O)c1 [(R) -6, 1-((1-Benzyl-1H-1,2,3-triazol-4-yl)methyl)-3-hydroxy-3-(3-hydroxyphenyl)indolin-2-one] |  |  |  |  | 210 | 
7 | O=C1N(Cc2cn(Cc3ccccc3)nn2)c2ccc(Br)cc2C1(O)c1ccccc1 [(R) -7, 1-((1-Benzyl-1H-1,2,3-triazol-4-yl)methyl)-5-bromo-3-hydroxy-3-phenylindolin-2-one] | 42.5 |  |  |  |  | 
8 | O=C1N(Cc2cn(Cc3ccccc3)nn2)c2ccccc2C1(O)c1ccccc1 [(S) -1, 1-((1-Benzyl-1H-1,2,3-triazol-4-yl)methyl)-3-hydroxy-3-phenylindolin-2-one] |  |  |  |  | 63 | 
9 | O=C1N(Cc2cn(Cc3ccccc3)nn2)c2ccccc2C1(O)c1ccc2ccccc2c1 [(S) -2, 1-((1-Benzyl-1H-1,2,3-triazol-4-yl)methyl)-3-hydroxy-3-(naphthalen-2-yl)indolin-2-one] |  |  | > 20 |  | 12.8 | IC50 [2]: > 20 µM; IC50 ([4]; OCI-LY-10 (ABC-DLBCL)): > 20 µM; IC50 [5]: 19 µM
10 | O=C1N(Cc2cn(Cc3ccccc3)nn2)c2ccccc2C1(O)c1ccc(F)cc1 [(S) -3, 1-((1-Benzyl-1H-1,2,3-triazol-4-yl)methyl)-3-(4-fluorophenyl)-3-hydroxyindolin-2-one] |  |  | > 20 |  | 25.9 | IC50 [2]: > 20 µM; IC50 ([4]; OCI-LY-10 (ABC-DLBCL)): > 20 µM; IC50 [5]: > 20 µM
11 | COc1ccc(C2(O)C(=O)N(Cc3cn(Cc4ccccc4)nn3)c3ccccc32)cc1 [(S) -4, 1-((1-Benzyl-1H-1,2,3-triazol-4-yl)methyl)-3-hydroxy-3-(4-methoxyphenyl)indolin-2-one] |  |  |  |  | 48.9 | 
12 | O=C1N(Cc2cn(Cc3ccccc3)nn2)c2ccccc2C1(O)c1ccsc1 [(S) -5, 1-((1-Benzyl-1H-1,2,3-triazol-4-yl)methyl)-3-hydroxy-3-(thiophen-3-yl)indolin-2-one] |  |  |  |  | 33 | 
13 | O=C1N(Cc2cn(Cc3ccccc3)nn2)c2ccccc2C1(O)c1cccc(O)c1 [(S) -6, 1-((1-Benzyl-1H-1,2,3-triazol-4-yl)methyl)-3-hydroxy-3-(3-hydroxyphenyl)indolin-2-one] |  |  |  |  | 52.8 | 
14 | O=C1N(Cc2cn(Cc3ccccc3)nn2)c2ccc(Br)cc2C1(O)c1ccccc1 [(S) -7, 1-((1-Benzyl-1H-1,2,3-triazol-4-yl)methyl)-5-bromo-3-hydroxy-3-phenylindolin-2-one] |  | 19 | > 20 | > 20 | 34.1 | IC50 ([5]; Homo sapiens, SU-DHL-2, 72 h): 19 µM
15 | Cc1ccc(C2(O)C(=O)N(Cc3cn(Cc4ccccc4)nn3)c3ccccc32)cc1 [(S) -8, 1-((1-Benzyl-1H-1,2,3-triazol-4-yl)methyl)-3-hydroxy-3-p-tolylindolin-2-one] | > 200 |  |  |  |  | 
16 | CCCCn1cc(CN2C(=O)C(O)(c3ccccc3)c3ccccc32)nn1 [(S) -9, 1-((1-Butyl-1H-1,2,3-triazol-4-yl)methyl)-3-hydroxy-3-phenylindolin-2-one] | > 200 |  |  |  |  | 
17 | COc1cccc2c1C(=O)c1c(O)c3c(c(O)c1C2=O)C[C@@](O)(C(=O)CO)C[C@@H]3O[C@H]1C[C@H](N)[C@H](O)[C@H](C)O1 [Dox, doxorubicin] |  |  |  |  |  | IC50 [6]: 65.3 µM
18 | CC(C)[C@H]1CC[C@H](C)C[C@H]1n1cc(CN2C(=O)C(=O)c3ccccc32)nn1 [ISATIN-BENZYL, 1-((1-((1R,2R,5S)-2-Isopropyl-5-methylcyclohexyl)-1H-1,2,3-triazol-4-yl)methyl)indoline-2,3-dione] |  | > 20 | > 20 | 1 |  | IC50 ([1]; Homo sapiens): 84.4 µM; IC50 ([5]; Homo sapiens): 5 µM
19 | O=C1C(=O)N(Cc2cn(Cc3ccccc3)nn2)c2ccccc21 [ISATIN-MENTHOL, 1-((1-Benzyl-1H-1,2,3-triazol-4-yl)methyl)indoline-2,3-dione] |  | > 20 | > 20 | 7 |  | IC50 ([1]; Homo sapiens): 13.7 µM; IC50 ([5]; Homo sapiens): 15 µM
